Experimental data as given in patent US7928140B2, “Benzothiazole PI3 kinase modulators for cancer treatment” (Amgen Inc., priority 2007, dated 2011).
Where two headings read alike, the source gives them in different places.

Tests used:
[1] = tested on: phosphorylation of Serine 473 in Akt, HCT 116 human colon carcinoma cells; test: Cell-based phospho-AKT Ser473 assay (MSD sandwich immunoassay, IGF-1 stimulated)
Procedure, shortened: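 Akt Ser473 phosphorylation was measured by MSD electrochemiluminescent sandwich immunoassay in lysates of HCT116 cells (16,000 cells/well). Cells received a compound dilution series for 2 h at 37 °C before a 15 min IGF-1 (100 ng/ml) stimulus, with IC50 calculated from the dose-response.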

PI3K α = target: T1, PI3K α (Homo sapiens, UniProt P42336); test: In vitro PI3 kinase enzyme assay (alpha), ATP loss, bioluminescence; format: biochemical; details: read-out: PI3Kα ATP loss IC50;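 also: purified p110α/p85 heterodimer acting on PtdIns(4,5)P2 at room temperature, remaining ATP read by luminescence, inhibition scaled between compound-free wells with and without enzyme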
T1 construct: Full length p110 subunits of PI3K α, β and δ, N-terminally labeled with polyHis tag; polyHis (N); made in house; host or cells: Sf9 insect cells (baculovirus)
T1 sequence (P42336 whole entry, species assumed): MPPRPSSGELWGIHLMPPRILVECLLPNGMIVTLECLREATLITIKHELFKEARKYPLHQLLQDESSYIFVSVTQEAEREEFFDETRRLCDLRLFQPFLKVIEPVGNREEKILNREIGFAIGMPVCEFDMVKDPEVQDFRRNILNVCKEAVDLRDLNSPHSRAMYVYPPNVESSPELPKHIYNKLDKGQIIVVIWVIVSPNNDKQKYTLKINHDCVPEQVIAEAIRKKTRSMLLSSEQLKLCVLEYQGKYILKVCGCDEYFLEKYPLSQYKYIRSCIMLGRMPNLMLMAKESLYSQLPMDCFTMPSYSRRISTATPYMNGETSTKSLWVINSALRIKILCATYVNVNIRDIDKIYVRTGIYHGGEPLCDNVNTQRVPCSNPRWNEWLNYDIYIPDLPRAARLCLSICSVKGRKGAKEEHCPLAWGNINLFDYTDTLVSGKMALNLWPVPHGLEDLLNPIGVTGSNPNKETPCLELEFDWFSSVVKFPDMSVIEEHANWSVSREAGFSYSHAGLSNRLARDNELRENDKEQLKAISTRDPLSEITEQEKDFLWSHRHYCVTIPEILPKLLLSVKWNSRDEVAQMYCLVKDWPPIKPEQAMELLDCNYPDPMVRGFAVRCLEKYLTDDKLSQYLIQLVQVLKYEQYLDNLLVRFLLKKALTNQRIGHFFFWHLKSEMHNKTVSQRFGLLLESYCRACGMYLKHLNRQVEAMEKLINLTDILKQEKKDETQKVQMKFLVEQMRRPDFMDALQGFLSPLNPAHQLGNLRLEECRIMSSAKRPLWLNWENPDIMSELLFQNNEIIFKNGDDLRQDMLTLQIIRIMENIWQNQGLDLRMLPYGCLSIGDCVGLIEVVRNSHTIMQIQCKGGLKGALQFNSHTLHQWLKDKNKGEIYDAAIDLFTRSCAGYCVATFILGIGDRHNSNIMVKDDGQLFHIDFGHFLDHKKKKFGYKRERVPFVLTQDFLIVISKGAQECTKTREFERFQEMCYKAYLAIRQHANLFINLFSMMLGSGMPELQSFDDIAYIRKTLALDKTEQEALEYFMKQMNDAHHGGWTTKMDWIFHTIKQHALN
T1 sequence (P27986 whole entry partner, species assumed): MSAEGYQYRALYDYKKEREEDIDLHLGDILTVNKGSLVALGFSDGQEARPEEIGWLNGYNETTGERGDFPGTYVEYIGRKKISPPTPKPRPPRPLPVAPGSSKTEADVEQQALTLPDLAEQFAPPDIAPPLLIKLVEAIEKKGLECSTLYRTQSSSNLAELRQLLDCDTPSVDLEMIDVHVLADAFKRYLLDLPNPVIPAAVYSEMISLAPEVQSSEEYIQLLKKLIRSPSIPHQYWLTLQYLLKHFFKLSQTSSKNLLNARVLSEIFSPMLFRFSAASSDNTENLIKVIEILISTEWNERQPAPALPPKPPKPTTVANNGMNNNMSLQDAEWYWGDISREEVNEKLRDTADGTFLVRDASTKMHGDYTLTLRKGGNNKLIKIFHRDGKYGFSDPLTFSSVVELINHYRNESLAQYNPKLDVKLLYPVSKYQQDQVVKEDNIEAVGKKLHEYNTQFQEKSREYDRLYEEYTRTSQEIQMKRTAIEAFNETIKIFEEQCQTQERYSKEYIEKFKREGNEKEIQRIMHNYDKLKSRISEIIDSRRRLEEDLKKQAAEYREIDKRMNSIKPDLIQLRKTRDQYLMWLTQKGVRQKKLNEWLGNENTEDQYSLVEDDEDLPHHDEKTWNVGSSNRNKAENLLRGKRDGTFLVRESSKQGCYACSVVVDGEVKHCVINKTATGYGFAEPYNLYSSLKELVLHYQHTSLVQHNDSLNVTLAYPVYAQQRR

PI3K β = target: T2, PI3K β (Homo sapiens, UniProt P42338); test: In vitro PI3 kinase enzyme assay (beta), ATP loss, bioluminescence; format: biochemical; details: read-out: PI3Kβ ATP loss IC50;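 also: purified p110β/p85 heterodimer with PtdIns(4,5)P2 as acceptor, incubated at room temperature, leftover ATP read by luminescence, inhibition scaled to compound-free wells with and without enzyme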
T2 construct: Full length p110 subunits of PI3K α, β and δ, N-terminally labeled with polyHis tag; polyHis (N); made in house; host or cells: Sf9 insect cells (baculovirus)
T2 sequence (P42338 whole entry): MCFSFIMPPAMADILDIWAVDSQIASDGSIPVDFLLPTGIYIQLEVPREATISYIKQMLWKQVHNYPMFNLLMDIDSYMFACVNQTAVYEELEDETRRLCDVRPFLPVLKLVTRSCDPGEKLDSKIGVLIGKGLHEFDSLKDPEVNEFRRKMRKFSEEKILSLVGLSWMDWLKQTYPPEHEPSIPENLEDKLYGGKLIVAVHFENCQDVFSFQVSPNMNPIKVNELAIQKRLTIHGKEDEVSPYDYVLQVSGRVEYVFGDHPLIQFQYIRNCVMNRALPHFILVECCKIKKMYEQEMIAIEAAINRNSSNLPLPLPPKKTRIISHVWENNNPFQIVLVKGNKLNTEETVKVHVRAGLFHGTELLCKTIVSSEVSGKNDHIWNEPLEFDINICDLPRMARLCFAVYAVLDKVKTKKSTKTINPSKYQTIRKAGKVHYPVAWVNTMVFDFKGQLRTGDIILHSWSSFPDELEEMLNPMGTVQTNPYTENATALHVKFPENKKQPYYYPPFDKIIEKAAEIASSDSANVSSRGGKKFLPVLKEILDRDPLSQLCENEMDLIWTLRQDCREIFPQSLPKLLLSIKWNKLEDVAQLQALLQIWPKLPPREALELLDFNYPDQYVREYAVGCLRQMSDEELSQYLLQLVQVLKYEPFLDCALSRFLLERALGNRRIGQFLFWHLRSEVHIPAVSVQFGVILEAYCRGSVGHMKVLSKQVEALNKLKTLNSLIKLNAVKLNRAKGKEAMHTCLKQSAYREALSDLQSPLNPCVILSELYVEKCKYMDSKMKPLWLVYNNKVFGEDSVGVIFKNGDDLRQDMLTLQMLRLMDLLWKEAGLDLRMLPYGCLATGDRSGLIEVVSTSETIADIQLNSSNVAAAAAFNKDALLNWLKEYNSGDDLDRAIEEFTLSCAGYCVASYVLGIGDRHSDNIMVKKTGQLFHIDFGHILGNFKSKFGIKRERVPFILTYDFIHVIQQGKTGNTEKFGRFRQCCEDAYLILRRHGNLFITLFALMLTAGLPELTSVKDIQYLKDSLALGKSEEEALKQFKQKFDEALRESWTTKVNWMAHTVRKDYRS
T2 sequence (P27986 whole entry partner): as the sequence (P27986 whole entry partner, species assumed) above
Experimental: Full length p110 subunits of PI3K α, β and δ, N-terminally labeled with polyHis tag, were co-expressed with p85 in baculovirus expression vectors in sf9 insect cells. P110/p85 heterodimers were purified by sequential Ni-NTA, Q-HP, and Superdex-100 chromatography. Purified α, β and δ isozymes were stored at −20° C. in 20 mM Tris, pH 8, 0.2M NaCl, 50% glycerol, 5 mM DTT, 2 mM Na cholate.
PI3K enzyme assays (alpha, beta, delta and gamma) were performed in 25 mL with the above final concentrations of components in white polypropylene plates (Costar catalogue #3355). Phosphatidyl inositol phosphoacceptor, PtdIns(4,5)P2 (eg. P4508) was obtained from Echelon Biosciences. The ATPase activity of the alpha and gamma isozymes was not greatly stimulated by PtdIns(4,5)P2 under these conditions and was therefore omitted from the assay of these isozymes. Test compounds were dissolved in DMSO and diluted with three-fold serial dilutions. The compound in DMSO (1 μL) was added per test well, and the inhibition relative to reactions containing no compound, with and without enzyme was determined. After assay incubation at RT, the reaction was stopped and residual ATP determined by addition of an equal volume of a commercial ATP bioluminescence kit (Perkin Elmer EasyLite) according to the manufacturer's instructions, and detected using an Analyst GT luminometer.

[2] = Homo sapiens, HCT-116, HCT 116 cells, read-out: HCT 116 pAKT IC50
[3] = Homo sapiens, HCT-116, read-out: HCT 116 pAKT IC50

IC50 [1, 2] [nM] | IC50 (PI3K α) [nM] | IC50 (PI3K β) [nM] | IC50 ([1]; HCT 116 cells, read-out: HCT 116 pAKT IC50) [nM] | Structure (SMILES) | IC50 [1, 3] [nM]
816 | 73.5 | 10700 | – | COc1ccncc1-c1ccc2nc(NC(C)=O)sc2c1 [Example 241, N-(6-(4-methoxypyridin-3-yl)benzo[d]thiazol-2-yl)acetamide] | –
312 | 51.5 | 1230 | – | COCC(=O)Nc1nc2ccc(-c3cnc(Cl)c(N(C)C)c3)cc2s1 [Example 271, N-(6-(6-Chloro-5-(dimethylamino)pyridin-3-yl)benzo[d]thiazol-2-yl)-2-methoxyacetamide] | –
246 | 8.6 | 30.2 | – | CNc1nc2ccc(-c3cnc(Cl)c(NS(=O)(=O)c4ccc(F)cc4)c3)cc2s1 [Example 317, N-(2-chloro-5-(2-(methylamino)-1,3-benzothiazol-6-yl)-3-pyridinyl)-4-fluorobenzenesulfonamide] | –
– | 7.6 | 11.4 | 48.8 | CC(=O)Nc1nc2ccc(-c3cnc(Cl)c(NS(=O)(=O)c4ccc(C(C)O)cc4)c3)cc2s1 (single isomer, unassigned) [Example 258] | –
93.9 | 19.5 | 244 | – | CC(=O)Nc1nc2ccc(-c3cnc(Cl)c(OC(F)F)c3)cc2s1 [Example 247, N-(6-(6-chloro-5-(difluoromethoxy)pyridin-3-yl)benzo[d]thiazol-2-yl)acetamide] | –
54.9 | 7.5 | 55.9 | – | CC(=O)Nc1nc2ccc(-c3cncc(NS(=O)(=O)c4ccc(F)cc4)c3)nc2s1 [Example 228, N-(5-(5-(4-Fluorophenylsulfonamido)pyridin-3-yl)thiazolo[5,4-b]pyridin-2-yl)acetamide] | –
496 | 14.9 | 36.8 | – | Nc1nc2ccc(-c3cnc(Cl)c(NS(=O)(=O)c4ccc(F)cc4Cl)c3)cc2s1 [Example 309, N-(5-(2-amino-1,3-benzothiazol-6-yl)-2-chloro-3-pyridinyl)-2-chloro-4-fluorobenzenesulfonamide] | –
9.9 | 5.2 | 7.3 | – | CC(=O)Nc1nc2ccc(-c3cnc(Cl)c(NS(=O)(=O)c4ccc(C(C)O)cc4)c3)cc2s1 (stereo not drawn) [Example 256, N-(6-(6-chloro-5-(4-(1-hydroxyethyl)phenylsulfonamido)pyridin-3-yl)benzo[d]thiazol-2-yl)acetamide] | –
1.7 | 2 | 12.2 | – | CC(=O)Nc1nc2ccc(-c3cnc(Cl)c(OC(C)=O)c3)cc2s1 [Example 303, 5-(2-acetamidobenzo[d]thiazol-6-yl)-2-chloropyridin-3-yl acetate] | –
424 | 13.6 | 27.9 | – | Nc1nc2ccc(-c3cnc(Cl)c(NS(=O)(=O)c4ccc(Cl)cc4F)c3)cc2s1 [Example 313, N-(5-(2-amino-1,3-benzothiazol-6-yl)-2-chloro-3-pyridinyl)-4-chloro-2-fluorobenzenesulfonamide] | –
> 5000 | 58.9 | 1450 | – | CN(C)c1cc(-c2ccc3nc(NC(=O)COc4ccccc4)sc3c2)cnc1Cl [Example 272, N-(6-(6-chloro-5-(dimethylamino)pyridin-3-yl)benzo[d]thiazol-2-yl)-2-phenoxyacetamide] | –
> 5000 | 22.3 | 34.5 | – | O=S(=O)(Nc1cc(-c2ccc3ncoc3c2)cnc1Cl)c1ccc(F)cc1 [Example 326, N-(5-(1,3-benzoxazol-6-yl)-2-chloro-3-pyridinyl)-4-fluorobenzenesulfonamide] | –

The remaining lines, values behind:

Structure (SMILES) | IC50 [1, 2] [nM] | IC50 (PI3K α) [nM] | IC50 (PI3K β) [nM] | IC50 ([1]; HCT 116 cells, read-out: HCT 116 pAKT IC50) [nM] | IC50 [1, 3] [nM]
CC(=O)Nc1nc2ccc(-c3ccnc(N(C)S(=O)(=O)c4cccc(C)c4)n3)cc2s1 [Example 93, N-(6-(2-(N,3-Dimethylphenylsulfonamido)pyrimidin-4-yl)benzo[d]thiazol-2-yl)acetamide] | 218 | 102 | 174 | – | –
CC(=O)Nc1nc2ccc(-c3ccnc(OCCCc4ccncc4)n3)cc2s1 [Example 44, N-(6-(2-(3-(4-pyridinyl)propoxy)-4-pyrimidinyl)-1,3-benzothiazol-2-yl)acetamide] | 577 | 97.9 | 2730 | – | –
CC(=O)Nc1nc2ccc(-c3cncc(N(C)S(=O)(=O)c4ccccc4)c3)cc2s1 [Example 224, N-(6-(5-(N-methylphenylsulfonamido)pyridin-3-yl)benzo[d]thiazol-2-yl)acetamide] | 145 | 111 | 1490 | – | –
COc1ccc(S(=O)(=O)Nc2nccc(-c3cc(F)c4nc(NC(C)=O)sc4c3)n2)cc1 [Example 131, N-(4-fluoro-6-(2-(((4-methoxyphenyl)sulfonyl)amino)-4-pyrimidinyl)-1,3-benzothiazol-2-yl)acetamide] | 1800 | 41.3 | 126 | – | –
COCCNc1nccc(-c2ccc3nc(NC(C)=O)sc3c2)n1 [Example 47, N-(6-(2-((2-methoxyethyl)amino)-4-pyrimidinyl)-1,3-benzothiazol-2-yl)acetamide] | 1150 | 696 | 18400 | – | –
CC(=O)Nc1nc2ccc(-c3cncc(NS(=O)(=O)c4ccc(F)cc4)c3)cc2s1 [Example 198, N-(6-(5-(4-fluorophenylsulfonamido)pyridin-3-yl)benzo[d]thiazol-2-yl)acetamide] | 40.4 | 5.3 | 14.7 | – | –
CC(C)Nc1cc(-c2ccc3nc(NC(=O)Cc4ccccn4)sc3c2)cnc1Cl [Example 141, N-(6-(6-chloro-5-(isopropylamino)pyridin-3-yl)benzo[d]thiazol-2-yl)-2-(pyridin-2-yl)acetamide] | 850 | 95.4 | 846 | – | –
CC(=O)Nc1nc2ccc(-c3ccnc(N(C)S(=O)(=O)c4ccc(C)cc4C)n3)cc2s1 [Example 212, N-(6-(2-(N,2,4-trimethylphenylsulfonamido)pyrimidin-4-yl)benzo[d]thiazol-2-yl)acetamide] | 237 | 72.2 | 60.3 | – | –
CC(=O)Nc1nc2ccc(-c3cnc(C)c(NS(=O)(=O)c4ccc(C(C)(C)C)cc4)c3)cc2s1 [Example 114, N-(6-(5-(((4-tert-butylphenyl)sulfonyl)amino)-6-methyl-3-pyridinyl)-1,3-benzothiazol-2-yl)acetamide] | 14.4 | 7 | 8.9 | – | –
CC(=O)Nc1nc2ccc(-c3cnc(Cl)c(NS(=O)(=O)C4CCCCC4)c3)cc2s1 [Example 171, N-(6-(6-chloro-5-(cyclohexanesulfonamido)pyridin-3-yl)benzo[d]thiazol-2-yl)acetamide] | – | 3.2 | 26.3 | – | 43.3
COc1ccc(S(=O)(=O)Nc2cccc(-c3ccc4nc(NC(C)=O)sc4n3)c2)cc1 [Example 146, N-(5-(3-(4-methoxyphenylsulfonamido)phenyl)thiazolo[5,4-b]pyridin-2-yl)acetamide] | – | 117 | 359 | – | 373
CC(=O)Nc1nc2ccc(-c3ccnc(Sc4c(C)cccc4C)n3)cc2s1 [Example 129, N-(6-(2-((2,6-dimethylphenyl)sulfanyl)-4-pyrimidinyl)-1,3-benzothiazol-2-yl)acetamide] | 978 | 38.3 | 477 | – | –
CC(=O)Nc1nc2ccc(-c3cccc(S(=O)(=O)c4ccc(F)cc4)n3)cc2s1 [Example 66, N-(6-(6-(4-Fluorophenylsulfonyl)pyridin-2-yl)benzo[d]thiazol-2-yl)acetamide] | 2020 | 258 | 5610 | – | –
CC(=O)Nc1nc2ccc(-c3cnc(Cl)c(NS(=O)(=O)c4ccc(C(C)(C)O)cc4)c3)cc2s1 [Example 161, N-(6-(6-chloro-5-(4-(2-hydroxypropan-2-yl)phenylsulfonamido)pyridin-3-yl)benzo[d]thiazol-2-yl)acetamide] | 4.1 | 13.7 | 44.6 | – | –
CC(=O)Nc1nc2c(F)cc(-c3cccc(S(=O)(=O)c4ccccc4F)n3)cc2s1 [Example 137, N-(4-fluoro-6-(6-((2-fluorophenyl)sulfonyl)-2-pyridinyl)-1,3-benzothiazol-2-yl)acetamide] | 901 | 65 | 1140 | – | –
CC(=O)Nc1nc2ccc(-c3cnc(Cl)c(NS(=O)(=O)c4cccs4)c3)cc2s1 [Example 186, N-(6-(6-chloro-5-(thiophene-2-sulfonamido)pyridin-3-yl)benzo[d]thiazol-2-yl)acetamide] | 15.6 | 6.6 | 14.3 | – | –
CC(=O)Nc1nc2ccc(-c3ccnc(NS(=O)(=O)c4ccc(C)cc4)c3)cc2s1 [Example 216, N-(6-(2-(4-methylphenylsulfonamido)pyridin-4-yl)benzo[d]thiazol-2-yl)acetamide] | 79.4 | 35.1 | 120 | – | –
CC(=O)Nc1nc2ccc(-c3ccnc(Sc4ccccc4Br)n3)cc2s1 [Example 134, N-(6-(2-((2-bromophenyl)sulfanyl)-4-pyrimidinyl)-1,3-benzothiazol-2-yl)acetamide] | 1220 | 47 | 668 | – | –
COc1ccc(S(=O)(=O)Nc2cc(-c3ccc4nc(NC(C)=O)sc4c3)cnc2Cl)cc1 [Example 163, N-(6-(6-Chloro-5-(4-methoxyphenylsulfonamido)pyridin-3-yl)benzo[d]thiazol-2-yl)acetamide] | 3.8 | 3 | 3.8 | – | –
